Paper PMC4409337, “Immucillins Impair Leishmania (L.) infantum chagasi and Leishmania (L.) amazonensis Multiplication In Vitro” (PLoS ONE, 2015)
Read-outs that look alike come from different tables or passages of the source.

Legend:
[1] = test system: NH of L. (L.) major; design: method as in PMID 10409664; settings: unit inferred; cited from earlier work
[2] = test system: Nucleoside hydrolase NH36 of L. (L.) donovani; type: biochemical, Leishmania (L.) donovani; settings: substrate of NH36; for k cat /K m: catalytic efficiency; for K m / k cat: 25°C, 50 mM Hepes pH 7.4
Protocol: (§1) BL21DE3 E.coli were transformed with the synthetic plasmid pET 28b encoding the gene of NH36 of Leishmania (L.) donovani (EMBL, Genbank and DDJB data bases, access number AY007193) with a His6tag at the C-terminal. Expression was induced with 0.5 mM IPTG and overnight incubation at 20°C. Purification of NH36 was performed on a column of Ni-NTA Superflow resin (Qiagen, USA) eluted by a stepwise imidazole gradient and monitored by SDS-polyacrylamide gel electrophoresis and protein assay. The extinction coefficient of NH36 is 21.437 mM^-1 cm^-1 at 280 nm, as calculated with the ProtParam program from ExPASy, and was used to estimate protein concentration (http://ca.expasy.org/seqanalref/). The yield of NH36 after purification was 11.87 mg per Liter of bacterial growth culture. Non-specific His-proteins with weak interactions were eluted with 50–100 mM imidazole (S1 Fig). The purified NH36 started to elute with 150 mM imidazole. We used 250 mM of imidazol in elution buffer for purification of NH36.
Steady-state kinetic rates for NH36 were determined on the substrates inosine, guanosine, adenosine, uridine and cytidine. Hypoxanthine and adenine formation were coupled to xanthine oxidase (12.9 mM^-1 cm^-1 at 293 nm and 15.2 mM^-1 cm^-1 at 305 nm, respectively), and the others were followed by direct uv absorbance changes resulting from cleavage of the N-ribosidic bond. Reaction mixtures contained 50 mM Hepes (pH 7.4), 100 mM NaCl and 5 mM of DTT. One unit, and 0.1 unit of xanthine oxidase (XOD) were used as the coupling enzyme to the adenosine and inosine assays, respectively. Spectral changes for hydrolysis of guanosine, uridine and cytidine were 5.4 mM^-1 cm^-1 at 257 nm,1.8 mM^-1 cm^-1 at 280 nm and 1.8 mM^-1 cm^-1 at 288 nm, respectively. Variable concentrations of substrate and appropriate amounts of purified NH36 were added in all assays. The hydrolysis of nucleosides to bases and ribose was followed by continuous recording of optical absorbance after addition of the enzyme, in a CARY 300 UV-visible spectrophotometer. Control rates with no enzyme addition were subtracted from initial rates. Reactions with substrates were conducted at 25°C using 1 cm path length cuvettes containing 1 mL reaction volumes. Kinetic parameters of NH36 were obtained by fitting initial rates to the Michaelis−Menten equation using GraFit 5 (Erithacus Software).

[3] = test system: intracellular amastigotes of L. (L.) infantum chagasi; settings: ref 44; read-out: IC50 against intracellular amastigotes; cited from earlier work
[4] = target: T1, Nucleoside hydrolase NH36 (Leishmania donovani, UniProt Q8WQX2); test: Ki determination: inhibition of NH36 activity by immucillins; type: biochemical, Leishmania (L.) donovani; settings: 10 mM inosine as substrate, 0.5 nM NH36, pH 7.4, room temperature
T1 sequence (Q8WQX2 1-314): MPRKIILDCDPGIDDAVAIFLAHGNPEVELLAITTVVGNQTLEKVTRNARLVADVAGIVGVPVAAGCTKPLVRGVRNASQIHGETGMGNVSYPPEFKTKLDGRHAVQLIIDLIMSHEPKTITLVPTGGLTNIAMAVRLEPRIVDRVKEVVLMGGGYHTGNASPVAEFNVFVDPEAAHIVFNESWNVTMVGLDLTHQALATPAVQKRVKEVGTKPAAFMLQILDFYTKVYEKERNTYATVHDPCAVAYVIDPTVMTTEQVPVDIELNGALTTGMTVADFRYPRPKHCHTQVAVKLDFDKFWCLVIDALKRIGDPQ
Protocol: as §1
The reaction mixtures contained 10 mM inosine as substrate, 50 mM Hepes (pH 7.4), 100 mM KCl, 5 mM DTT and 1 unit XOD. The hydrolysis of inosine to hypoxanthine and ribose was followed by continuous reading of optical absorbance at 293 nm, using variable concentrations of inhibitors in a CARY 300UV-visible spectrophotometer. Controls without enzyme and without inhibitors were included in all inhibition assays. The inhibition constant for each immucillin was obtained, using GraFit 5 (Erithacus Software), by fitting initial rates with variable inhibitor concentrations to the equation (vi/v0 = [S] / Km + [S] + Km[I] / Ki), where v i is the initial rate in the presence of the inhibitor, v 0 is the initial rate in the absence of the inhibitor, K m is the Michaelis constant for inosine, [S] and [I] are inosine and inhibitor concentrations, respectively, and Ki is the inhibition constant.

[5] = test system: L. (L.) amazonensis promastigotes; test: In vitro growth of promastigotes in FBS supplemented Schneider's insect medium; type: cell-based, Leishmania (L.) amazonensis; settings: Leishmania amazonensis; for inhibition at 500 µM: read-out: percent inhibition on L. (L.) amazonensis replication; for IC50: read-out: IC50 (CI 95%) on L. (L.) amazonensis promastigotes in vitro growth
Source text: The strain of Leishmania (L.) infantum chagasi MHOM/BR/1974/PP75 was obtained from the Leishmania Type Culture Collection (Fundacão Oswaldo Cruz, Rio de Janeiro, RJ, Brazil) and the strain of Leishmania (L.) amazonensis (MHOM/BR/1975/Josefa) was kindly given by Professor Rosâ[…] from Universidade Federal do Rio de Janeiro. Promastigotes were maintained by weekly transfers in screw-capped glass tubes containing Schneider's insect medium (Sigma Aldrich, MO, USA), pH 7.0, supplemented with 10% Fetal Bovine Serum (FBS) at 26°C. Stock solutions (20 mM) of immucillins IA […] prepared using Milli-Q purified water. Log phase promastigotes of L. (L.) infantum chagasi and L. […] Promastigotes were recorded in a Neubauer chamber after 24, 48, 72 and 96 hours of incubation at 26°C. […] We also assayed the possibility of reversing the inhibitory effect of IA in RPMI medium by the addition of adenosine to the culture medium. The concentration of adenosine in Schneider s insect serum supplemented medium was assessed by HPLC using a C-18 reverse-phase column as described.

[6] = test system: L. (L.) infantum chagasi promastigotes; test: as above; type: cell-based, Leishmania (L.) infantum chagasi; settings: Leishmania infantum; for inhibition at 500 µM: after 96 h of culture, read-out: percent inhibition on L. (L.) infantum chagasi promastigote growth
Source text: The strain of Leishmania (L.) infantum chagasi MHOM/BR/1974/PP75 was obtained from the Leishmania Type Culture Collection (Fundacão Oswaldo Cruz, Rio de Janeiro, RJ, Brazil) and the strain of Leishmania (L.) amazonensis (MHOM/BR/1975/Josefa) was kindly given by Professor Rosâ[…] from Universidade Federal do Rio de Janeiro. Promastigotes were maintained by weekly transfers in screw-capped glass tubes containing Schneider's insect medium (Sigma Aldrich, MO, USA), pH 7.0, supplemented with 10% Fetal Bovine Serum (FBS) at 26°C. […] Log phase promastigotes of L. (L.) infantum chagasi and L. […] Promastigotes were recorded in a Neubauer chamber after 24, 48, 72 and 96 hours of incubation at 26°C. […] The concentration of adenosine in Schneider s insect serum supplemented medium was assessed by HPLC using a C-18 reverse-phase column as described.

[7] = in vitro; settings: female, BALB/c, mouse
Protocol: (§2) Alternatively, the immucillins were added at 0, 24 and 48 h and viability assessed after 72h. […] The amastigote growth was assessed 24 h after the last drug addition, on 200 cells in Giemsa stained coverslips and expressed as phagocytic index = percent of infected macrophages x average number of intracellular amastigotes. […] All experiments with mice were reviewed and approved by the Animal Care and Use Committee of the Instituto de Biofísica Carlos Chagas Fo.-UFRJ (CAUAP-CONCEA, Brazil, IMPPG-016) and were performed according to the guidelines of the National Institutes of Health, USA. We made all efforts in order to minimize animal suffering.

[8] = test system: intracellular amastigotes of L. (L.) infantum chagasi; test: Replication of intracellular amastigotes in infected peritoneal macrophages (phagocytic index); type: cell-based, Leishmania (L.) infantum chagasi
Protocol: as §2, with “Alternatively, the immucillins were added at 0, 24 and 48 h and viability assessed after 72h.” left out

[9] = test system: L. (L.) infantum chagasi promastigotes; test: Transmission electron microscopy of treated promastigotes; type: cell-based, Leishmania (L.) infantum chagasi; settings: 10 μM, 72 h
Source text: The cells were washed with Milli Q water, dehydrated in increasing concentration of acetone and embedded in Epon (1: 1) (PolyBed 812). The ultrathin sections were obtained, contrasted with 5% uranyl acetate and lead citrate and observed under a Joel 1200 electron microscope.

[10] = single addition at 0 h, evaluated after 48 hours, 26°C, read-out: IC50 (CI 95%) on L. (L.) infantum chagasi promastigotes in vitro growth
[11] = single addition at 0 h, evaluated after 48 hours, 26°C

Ki [4] [µM]	SMILES	IC50 [3] [µM]	inhibition at 500 µM ([5]; 500 μM, after 96 h of culture) [%]	IC50 [6, 10] [µM]	inhibition at 500 µM [6] [%]	IC50 [5, 11] [µM]	other results
	Nc1ncnc2c1ncn2[C@@H]1O[C@H](CO)[C@@H](O)[C@H]1O [Adenosine]						k cat [1]: 0.57 s⁻¹; k cat /K m [2]: 53000 M⁻¹ s⁻¹; K m [2]: 70 ± 30 µM; k cat [2]: 3.7 ± 0.1 s ^-1
	C[C@@H]1[C@H](O)[C@@H](C)/C=C/C=C/C=C/C=C/C=C/C=C/C=C/[C@H](O[C@@H]2O[C@H](C)[C@@H](O)[C@H](N)[C@@H]2O)C[C@@H]2O[C@](O)(C[C@@H](O)C[C@@H](O)[C@H](O)CC[C@@H](O)C[C@@H](O)CC(=O)O[C@H]1C)C[C@H](O)[C@H]2C(=O)O [Amphotericin]	0.04					
	CC[C@H]1OC(=O)[C@H](C)[C@@H](O[C@H]2C[C@@](C)(OC)[C@@H](O)[C@H](C)O2)[C@H](C)[C@@H](O[C@@H]2O[C@H](C)C[C@H](N(C)C)[C@H]2O)[C@](C)(O)C[C@@H](C)CN(C)[C@H](C)[C@@H](O)[C@]1(C)O [Azitromycin]	19.9					
	Nc1ccn([C@@H]2O[C@H](CO)[C@@H](O)[C@H]2O)c(=O)n1 [Cytidine]						k cat [1]: 0.36 s⁻¹; k cat /K m [2]: 9300 M⁻¹ s⁻¹; K m [2]: 1,403 ± 282 μM; k cat [2]: 13.1 ± 1.1 s ^-1
> 5	Nc1ncnc2c(CN3C[C@H](CO)[C@@H](O)C3)c[nH]c12 [DIA]		16	109	69		
> 5	Nc1nc2c(CN3C[C@H](CO)[C@@H](O)C3)c[nH]c2c(=O)[nH]1 [DIG]		67	23.7	68	40	
> 5	O=c1[nH]cnc2c(CN3C[C@H](CO)[C@@H](O)C3)c[nH]c12 [DIH]		89	1.8	89	3.4	
	Nc1nc2c(ncn2[C@@H]2O[C@H](CO)[C@@H](O)[C@H]2O)c(=O)[nH]1 [Guanosine]						k cat /K m [2]: 1200 M⁻¹ s⁻¹; K m [2]: 380 ± 153 µM; k cat [2]: 0.47 ± 0.1 s ^-1
	CCCCCCCCCCCCCCCCOP(=O)([O-])OCC[N+](C)(C)C [Miltefosine]	4.4					
	NC[C@@H]1O[C@H](O[C@H]2[C@@H](O)[C@H](O[C@@H]3[C@@H](O)[C@H](N)C[C@H](N)[C@H]3O[C@H]3O[C@H](CO)[C@@H](O)[C@H](O)[C@H]3N)O[C@@H]2CO)[C@H](N)[C@@H](O)[C@@H]1O [Paramomycin]	337					
> 5	Nc1ncnc2c(CNC(CO)CO)c[nH]c12 [SMIA]		71	349	71	157	
1.8	Nc1nc2c(CNC(CO)CO)c[nH]c2c(=O)[nH]1 [SMIG]			25.8	70	29.4	

SMILES	Ki [4] [µM]	IC50 [3] [µM]	inhibition at 500 µM ([5]; 500 μM, after 96 h of culture) [%]	IC50 [6, 10] [µM]	inhibition at 500 µM [6] [%]	IC50 [5, 11] [µM]	other results
O=c1[nH]cnc2c([C@@H]3N[C@H](CO)[C@@H](O)[C@H]3O)c[nH]c12 [IH]	0.019						CC50 at 48 h [7]: 950 µM; reduction in the number of intracellular amastigotes ([8]; 10 μM added daily at 0, 24 and 48 h): 95%; EC50 ([8]; Leishmania infantum, Peritoneal macrophage, read-out: EC50 (CI 95%)): 3.69 µM; decrease of intracellular amastigote parasite load ([8]; low micromolar concentrations, single to daily protocol): 74–95%; reduction in the number of intracellular amastigotes ([8]; single 10 μM dose at 0 h, compared to untreated controls): 70%; inhibition at 500 µM ([5]; 96 h): 71%; IC50 [5]: 49.7 µM; IC50 ([6]; read-out: IC50 (CI 95%) on L. (L.) infantum chagasi promastigotes in vitro growth, single addition at 0 h, evaluated after 48 hours, 26°C): 30.6 µM; IC50 ([6]; read-out: IC50 on promastigote growth, daily addition, drugs added at 0, 24 and 48 h, after 48h): 6.7 µM; IC50 ([6]; read-out: IC50 on promastigote growth, daily addition, drugs added at 0, 24 and 48 h, at 72 and 96 h): < 0.05 µM; effect on cellular ultrastructure of promastigotes [9]: alterations and swelling of kinetoplasts
